PubChem BioAssay (NCI)
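The compound was tested at five concentrations on cells cultured in 96-well plates, with a 48-hour exposure period. At the TGI there is no net growth.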

Key:
Experiment in all cases: inhibition of tumour cell growth, NCI panel, 48 h
[1] = system: OVCAR-5 ovarian
[2] = system: MOLT-4 leukemia
[3] = system: M14 melanoma
[4] = system: NCI/ADR-RES ovarian
[5] = system: SK-MEL-28 melanoma
[6] = system: SF-295 CNS
[7] = system: 786-0 renal
[8] = system: UACC-257 melanoma
[9] = system: SW-620 colon
[10] = system: CCRF-CEM leukemia
[11] = system: HCC-2998 colon
[12] = system: A498 renal
[13] = system: NCI-H522 lung
[14] = system: RPMI-8226 leukemia
[15] = system: OVCAR-3 ovarian
[16] = system: U251 CNS
[17] = system: IGROV1 ovarian
[18] = system: NCI-H460 lung
[19] = system: SK-MEL-5 melanoma
[20] = system: HOP-92 NSCLC
[21] = system: HCT-116 colon
[22] = system: MCF7 breast
[23] = system: HS 578T breast
[24] = system: CAKI-1 renal
[25] = system: A549 NSCLC
[26] = system: K-562 leukemia
[27] = system: BT-549 breast
[28] = system: MDA-MB-231 breast
[29] = system: UO-31 renal
[30] = system: TK-10 renal
[31] = system: COLO 205 colon
[32] = system: MDA-MB-435
[33] = system: SNB-19 CNS
[34] = system: UACC-62 melanoma
[35] = system: MDA-N
[36] = system: EKVX NSCLC
[37] = system: HT29 colon
[38] = system: DU-145 prostate
[39] = system: HCT-15 colon
[40] = system: RXF 393 renal
[41] = system: MALME-3M melanoma
[42] = system: OVCAR-8 ovarian
[43] = system: HOP-62 NSCLC
[44] = system: SK-OV-3 ovarian
[45] = system: NCI-H23 lung
[46] = system: SF-268 CNS
[47] = system: SK-MEL-2 melanoma
[48] = system: SNB-75 CNS
[49] = system: PC-3 prostate
[50] = system: KM12 colon
[51] = system: OVCAR-4 ovarian
[52] = system: ACHN renal
[53] = system: SF-539 CNS
[54] = system: LOX IMVI melanoma
[55] = system: SN12C renal
[56] = system: HL-60(TB) leukemia
[57] = system: NCI-H226 lung
[58] = system: SR leukemia

Measured: TGI

Cc1cc(-c2ccc[nH]2)on1
not listed: [53] | [54] | [55] | [56] | [57] | [58]
> 100 µM: all other assays above

C(=Nc1ccccc1C1SCCCS1)c1ccccc1
not listed: [58]
> 100 µM: all other assays above

Cc1cc(C)c2ccc(N3CCNCC3)nc2n1
not listed: [12] | [19] | [40]
> 100 µM: all other assays above

O=c1cnnc2sc(=S)[nH]n12
68.2 µM: [24]
12.1 µM: [10]
74 µM: [17]
62.3 µM: [58]
79.9 µM: [56]
34.3 µM: [42]
27 µM: [13]
39.8 µM: [22]
57.9 µM: [19]
13.9 µM: [54]
53.4 µM: [51]
57.3 µM: [39]
24.9 µM: [9]
52.1 µM: [29]
9.18 µM: [43]
29.1 µM: [14]
42.2 µM: [2]
36.8 µM: [26]
49.8 µM: [7]
64.4 µM: [27]
78.4 µM: [8]
75.3 µM: [16]
not listed: [20] | [28] | [30] | [40] | [44] | [45] | [48] | [55] | [57]
> 100 µM: all other assays above

O=C(c1cc(Cl)ccc1Cl)N1CCN(c2ccc(Cl)c(Cl)c2)CC1
48.5 µM: [7]
80.8 µM: [27]
54.1 µM: [40]
36.1 µM: [18]
76.4 µM: [53]
52.6 µM: [13]
33.8 µM: [29]
51.9 µM: [50]
85.4 µM: [26]
30.3 µM: [19]
83.9 µM: [8] | [37]
54.3 µM: [2]
97.8 µM: [49]
84.1 µM: [54]
96.2 µM: [35]
72 µM: [22]
45.5 µM: [42]
44.1 µM: [12]
not listed: [3] | [4] | [31] | [32] | [33] | [34] | [44] | [47]
> 100 µM: all other assays above
